# Data taken from US20180339963A1, “ANTICONVULSANT CARBAMATE DERIVATIVES” (Yissum Research Development Company of the Hebrew …, priority 2017, published 2018).
# Read-outs that look alike come from different tables or passages of the source. Marks after values point to notes of the source that are not given here.
# Legend:
# hCA VII = biological target: T1, hCA VII (Homo sapiens, UniProt P43166); experiment: Stopped flow CO2 hydrase assay, hCA VII; assay type: biochemical; conditions: mean from 3 assays, read-out: K1, hCA VII
# T1 construct: made in house
# T1 sequence (P43166 whole entry): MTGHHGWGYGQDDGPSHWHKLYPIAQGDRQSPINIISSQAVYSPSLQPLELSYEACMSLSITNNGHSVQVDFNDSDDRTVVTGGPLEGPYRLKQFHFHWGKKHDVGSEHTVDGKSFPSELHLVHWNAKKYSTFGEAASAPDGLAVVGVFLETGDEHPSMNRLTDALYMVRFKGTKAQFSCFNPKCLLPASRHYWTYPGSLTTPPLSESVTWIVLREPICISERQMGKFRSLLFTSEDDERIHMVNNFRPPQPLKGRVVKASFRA
# Procedure: (§1) An Applied Photophysics stopped-flow instrument has been used for assaying the CA catalysed CO2 hydration activity. Phenol red (at a concentration of 0.2 mM) has been used as indicator, working at the absorbance maximum of 557 nm, with 20 mM Hepes (pH 7.5) as buffer, and 20 mM Na2SO4 (for maintaining constant the ionic strength), following the initial rates of the CA-catalyzed CO2 hydration reaction for a period of 10-100 s. The CO2 concentrations ranged from 1.7 to 17 mM for the determination of the kinetic parameters and inhibition constants. […] The uncatalyzed rates were determined in the same manner and subtracted from the total observed rates. Stock solutions of inhibitor (0.1 mM) were prepared in distilled-deionized water and dilutions up to 0.01 nM were done thereafter with the assay buffer. […] The inhibition constants were obtained by non-linear least-squares methods using PRISM 3 and the Cheng-Prusoff equation, as reported earlier and represent the mean from at least three different determinations. All CA isofoms were recombinant ones obtained in-house.
# hCA IV = biological target: T2, hCA IV (Homo sapiens, UniProt P22748); experiment: Stopped flow CO2 hydrase assay, hCA IV; assay type: biochemical; conditions: mean from 3 assays, read-out: K1, hCA IV
# T2 construct: made in house
# T2 sequence (P22748 19-284): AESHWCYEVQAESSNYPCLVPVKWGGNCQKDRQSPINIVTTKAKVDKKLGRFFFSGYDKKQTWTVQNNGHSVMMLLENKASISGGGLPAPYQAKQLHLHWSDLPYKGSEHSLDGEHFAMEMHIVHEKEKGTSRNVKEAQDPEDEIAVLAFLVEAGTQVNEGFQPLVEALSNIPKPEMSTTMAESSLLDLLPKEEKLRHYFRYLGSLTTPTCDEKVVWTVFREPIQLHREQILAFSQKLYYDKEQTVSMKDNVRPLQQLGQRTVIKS
# Procedure: as §1
# [1] = tested on: pentylenetetrazol-induced seizure (scMet); experiment: Subcutaneous metrazol seizure test (scMet) in mice; conditions: Mus musculus, ip, read-out: scMet-ED50
# [2] = tested on: maximal electroshock seizure (MES); experiment: Maximal electroshock seizure (MES) test in rats; conditions: Rattus norvegicus, po, read-out: MES-ED50, rats, p.o.
# 6 Hz psychomotor seizure = 6 Hz psychomotor seizure test in mice; conditions: for responders at 30 mg/kg / responders at 100 mg/kg / responders at 300 mg/kg: read-out: 6 Hz, number of mice protected/number of mice tested
# in vivo = conditions: male, CF no. 1 albino, mouse, ip
# [3] = tested on: maximal electroshock seizure (MES); experiment: Maximal electroshock seizure (MES) test in mice; conditions: for responders at 30 mg/kg / responders at 100 mg/kg / responders at 300 mg/kg: read-out: MES, number of mice protected/number of mice tested
# [4] = tested on: pentylenetetrazol-induced seizure (scMet); experiment: Subcutaneous metrazol seizure test (scMet) in rats; conditions: rats, p.o.
# mice = experiment: Neurotoxicity (minimal motor impairment, rotarod) in mice; conditions: mice i.p.
# hCA II = biological target: T3, hCA II (Homo sapiens, UniProt P00918); experiment: Stopped flow CO2 hydrase assay, hCA II; assay type: biochemical; conditions: mean from 3 assays, read-out: K1, hCA II
# T3 construct: made in house
# Procedure: as §1
# hCA I = biological target: T4, hCA I (Homo sapiens, UniProt P00915); experiment: Stopped flow CO2 hydrase assay, hCA I; assay type: biochemical; conditions: mean from 3 assays, read-out: K1, hCAI
# T4 construct: made in house
# T4 sequence (P00915 whole entry): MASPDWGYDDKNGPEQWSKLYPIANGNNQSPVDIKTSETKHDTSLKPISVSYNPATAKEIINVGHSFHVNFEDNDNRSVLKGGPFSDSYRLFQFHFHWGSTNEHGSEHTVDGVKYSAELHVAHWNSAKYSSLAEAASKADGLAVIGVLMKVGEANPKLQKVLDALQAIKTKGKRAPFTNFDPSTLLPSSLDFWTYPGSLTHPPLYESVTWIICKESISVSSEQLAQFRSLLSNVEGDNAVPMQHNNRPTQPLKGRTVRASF
# Procedure: as §1
# SWV mice = experiment: Teratogenicity in the SWV mouse model; assay type: in vivo; conditions: for No. of fetuses with NTDs / No. of implants / No. of live fetuses / No. of resorptions / Fetal weight mean ± SD: day 8.5 of gestation; for Fetal weight mean ± SD: in g (unit assumed); for No. of live fetuses, figure in parentheses / No. of resorptions, figure in parentheses: share of implants; for No. of fetuses with NTDs, figure in parentheses: share of live fetuses
# Procedure: The teratogenic properties of the newly designed compounds (1-10) were evaluated in the highly inbred SWV mice strain known for its high susceptibility to VPA-induced neural tube defects (NTDs). Two month old nulligravid females, were mated overnight with males and examined for the presence of vaginal plugs the following morning, and the onset of gestation was considered to be 10 p.m. of the previous night, the midpoint of the dark cycle. At day 8.5 of gestation, each dam received a single i.p. injection of the test compounds in an equimolar dose of 0.9 or 1.8 mmol/kg and the control dams were injected with vehicle (25% water solution of Cremophore EL, Fluka Biochemica Germany). The volume of injection was 10 μL/g of body weight. […] At gestation day […], the dams were euthanized by carbon dioxide asphyxiation followed by cervical dislocation. After the opening the uterus, the location of all viable fetuses and resorption sites were recorded, and the fetuses were examined for the presence of exencephaly or other gross congenital abnormalities. The teratogenicity data (implantations, resorptions and NTDs) were evaluated for significant differences between the control and treated groups by analyzing the contingency table with Fisher's exact test. Statistical analysis was conducted using GraphPad InStat (version 3.06; GraphPad Software, San Diego, Calif., USA), and the results of all tests were considered to be statistically significant when the p-value was less than 0.05
smiles,measurement,setting,value
"CCCC(COC(=O)Nc1ccc(S(N)(=O)=O)cc1)C(C)CC (stereo not drawn) [Compound 1, 3-methyl-2-propylpentyl (4-sulfamoylphenyl)carbamate]",Ki,hCA VII,865 nM
same,Ki,hCA IV,> 10000 nM
same,melting point,,151 to 152 °C
same,ED50,[1],> 300 mg/kg
same,ED50,[2],36 mg/kg
same,responders at 30 mg/kg,"6 Hz psychomotor seizure; Mus musculus, ip, 0.5 h",25%
same,responders at 100 mg/kg,"6 Hz psychomotor seizure; Mus musculus, ip, 0.5 h",25%
same,responders at 300 mg/kg,"6 Hz psychomotor seizure; Mus musculus, ip, 0.5 h",0%
same,responders at 30 mg/kg,"6 Hz psychomotor seizure; Mus musculus, ip, 2 h",0%
same,responders at 100 mg/kg,"6 Hz psychomotor seizure; Mus musculus, ip, 2 h",25%
same,responders at 300 mg/kg,"6 Hz psychomotor seizure; Mus musculus, ip, 2 h",75%
same,ED50,"6 Hz psychomotor seizure; Mus musculus, ip, read-out: 6 Hz-ED50, mice, i.p., 32 mA",75 mg/kg
same,6 Hz-ED50,"6 Hz psychomotor seizure; mice, i.p., 32 mA",74 mg/kg
same,TD50,in vivo,> 500 mg/kg
same,responders at 30 mg/kg,"[3]; Mus musculus, ip, 0.5 h",0%
same,responders at 100 mg/kg,"[3]; Mus musculus, ip, 0.5 h",0%
same,responders at 300 mg/kg,"[3]; Mus musculus, ip, 0.5 h",0%
same,responders at 30 mg/kg,"[3]; Mus musculus, ip, 2 h",0%
same,responders at 100 mg/kg,"[3]; Mus musculus, ip, 2 h",75%
same,responders at 300 mg/kg,"[3]; Mus musculus, ip, 2 h",100%
same,ED50,"[3]; Mus musculus, ip, read-out: MES-ED50, mice, i.p.",136 mg/kg
same,MES-ED50,"[3]; mice, i.p.",236 mg/kg
same,scMet ED50,[4],inactive
same,"Tox (motor impairment or sedation), number of animals affected/number of animals tested","mice; 30 mg/kg, 0.5 h",0/8
same,"Tox (motor impairment or sedation), number of animals affected/number of animals tested","mice; 30 mg/kg, 2.0 h",0/8
same,"Tox (motor impairment or sedation), number of animals affected/number of animals tested","mice; 100 mg/kg, 0.5 h",0/8
same,"Tox (motor impairment or sedation), number of animals affected/number of animals tested","mice; 100 mg/kg, 2.0 h",0/8
same,"Tox (motor impairment or sedation), number of animals affected/number of animals tested","mice; 300 mg/kg, 0.5 h",0/8
same,"Tox (motor impairment or sedation), number of animals affected/number of animals tested","mice; 300 mg/kg, 2.0 h",0/8
same,Ki,hCA II,5.7 nM
same,Ki,hCA I,89 nM
same,induction of neural tube defects relative to anticonvulsant effective dose (in words),SWV mice,induced neural tube defects only at doses markedly exceeding their effective dose
same,No. of fetuses with NTDs,SWV mice; single i.p. 0.9 mmol/kg,1
same,No. of implants,SWV mice; single i.p. 0.9 mmol/kg,126
same,No. of live fetuses,SWV mice; single i.p. 0.9 mmol/kg,94
same,No. of resorptions,SWV mice; single i.p. 0.9 mmol/kg,32
same,Fetal weight mean ± SD,SWV mice; single i.p. 0.9 mmol/kg,0.88 ± 0.03
same,"No. of live fetuses, figure in parentheses",SWV mice; single i.p. 0.9 mmol/kg,74.6%
same,"No. of resorptions, figure in parentheses",SWV mice; single i.p. 0.9 mmol/kg,25.4%
same,"No. of fetuses with NTDs, figure in parentheses",SWV mice; single i.p. 0.9 mmol/kg,(1.1)
same,No. of fetuses with NTDs,SWV mice; single i.p. 1.8 mmol/kg,7
same,No. of implants,SWV mice; single i.p. 1.8 mmol/kg,109
same,No. of live fetuses,SWV mice; single i.p. 1.8 mmol/kg,50
same,No. of resorptions,SWV mice; single i.p. 1.8 mmol/kg,59
same,Fetal weight mean ± SD,SWV mice; single i.p. 1.8 mmol/kg,0.88 ± 0.06
same,"No. of live fetuses, figure in parentheses",SWV mice; single i.p. 1.8 mmol/kg,45.9%
same,"No. of resorptions, figure in parentheses",SWV mice; single i.p. 1.8 mmol/kg,54.1%
same,"No. of fetuses with NTDs, figure in parentheses",SWV mice; single i.p. 1.8 mmol/kg,(14.0)*
